Test results: US20160242416A1, “FUNGICIDAL ISOXAZOLINE CARBINOLS” (E I DU PONT DE NEMOURS AND COMPANY, priority 2015, published 2016)

Key:
Stagonospora nodorum = test: Test D: wheat glume blotch, preventive spray on wheat seedlings; conditions: 10 ppm; wheat glume blotch; 100 = 100% disease control, 0 = no control
[1] = test system: Erysiphe graminis f sp. tritici; test: Test G: wheat powdery mildew, preventive spray on wheat seedlings; conditions: 10 ppm; wheat powdery mildew; 100 = 100% disease control, 0 = no control
Text: General protocol for preparing test solutions for Tests A-G: the test compounds were first dissolved in acetone in an amount equal to 3% of the final volume and then suspended at the desired concentration (in ppm) in acetone and purified water (50/50 mix by volume) containing 250 ppm of the surfactant PEG400 (polyhydric alcohol esters). The resulting test suspensions were then used in Tests A-G. Compounds were sprayed at a concentration of 50 ppm (*) or 10 ppm to the point of run-off on the test plants, the equivalent of a rate of 200 g/ha or 40 g/ha, respectively.
The test solution was sprayed to the point of run-off on wheat seedlings. The following day the seedlings were inoculated with a spore dust of Erysiphe graminis f sp. tritici, (the causal agent of wheat powdery mildew) and incubated in a growth chamber at 20° C. for 8 days, after which time visual disease ratings were made.
Compounds with an asterisks (*) were applied at a concentration of 50 ppm, otherwise test solutions were applied at 10 ppm.

Botrytis cinerea = test: Test B: gray mold, preventive spray on tomato seedlings; conditions: 10 ppm; gray mold on tomato; 100 = 100% disease control, 0 = no control
[2] = test system: Puccinia recondita f sp. tritici; test: Test F: wheat leaf rust, preventive spray on wheat seedlings; conditions: 10 ppm; wheat leaf rust; 100 = 100% disease control, 0 = no control
Zymoseptoria tritici = test: Test E: wheat leaf blotch, preventive spray on wheat seedlings; conditions: 10 ppm; wheat leaf blotch; 100 = 100% disease control, 0 = no control

Row | Compound | Test D rating (% disease control) (Stagonospora nodorum) [%] | Test G rating (% disease control) [1] [%] | Test B rating (% disease control) (Botrytis cinerea) [%] | Test F rating (% disease control) [2] [%] | Test E rating (% disease control) (Zymoseptoria tritici) [%]
1 | OC(Cn1cncn1)(C1=NOC(COCc2ccccc2)C1)c1ccc(Cl)cc1 (single isomer, unassigned) [Compound 57] | 0 | 97 | 0 | 97 | 0
2 | OC(Cn1cncn1)(C1=NOC(c2ccc(Cl)cc2)C1)c1ccc(Br)cc1 (single isomer, unassigned) [Compound 180] | 99 | 100 | 0 | 100 | 1
3 | CC(C)(C)CC(O)(Cn1cncn1)C1=NOC(COc2ccc(Br)cc2)C1 (single isomer, unassigned) [Compound 170] | 99 | 99 | 0 | 100 | 68
4 | CC(C)(C)C(O)(Cn1cncn1)C1=NOC(COc2ccc(I)cc2)C1 (single isomer, unassigned) [Compound 184] | 100 | 100 | 44 | 100 | 94
5 | OC(Cn1cncn1)(C1=NOC(Cn2cc(Br)cn2)C1)c1ccc(Cl)cc1 (single isomer, unassigned) [Compound 38] | 0 | 72 | 0 | 55 | 1
6 | OC(Cn1cncn1)(C1=NOC(c2ccc(Cl)cc2)C1)c1ccccc1Cl (single isomer, unassigned) [Compound 151] | 0 | 90 | 0 | 84 | 76
7 | CC(C)(C)C(O)(Cn1cncn1)C1=NOC(COc2ccc(Cl)nc2)C1 (single isomer, unassigned) [Compound 97] | 99 | 94 | 0 | 98 | 0
8 | CC(C)(C)C(O)(Cn1cncn1)C1=NOC(COc2ccc(Cl)cc2)C1 (stereo not drawn) [Compound 174, α-[5-[(4-chlorophenoxy)methyl]-4,5-dihydro-3-isoxazolyl]-α-(1,1-dimethylethyl)-1H-1,2,4-triazole-1-ethanol] | 100 | 100 | 58 | 100 | 12
9 | OC(Cn1cncn1)(C1=NOC(COc2ccc(Cl)nc2)C1)c1ccc(Cl)cc1 (single isomer, unassigned) [Compound 101] | 0 | 99 | 0 | 100 | 0
10 | CC(C)(C)CC(O)(Cn1cncn1)C1=NOC(c2ccc(Cl)cc2)C1 (single isomer, unassigned) [Compound 138] | 100 | 100 | 17 | 100 | 0
11 | CC(C)(C)C(O)(Cn1cncn1)C1=NOC(COc2ccc(-n3cccn3)cc2)C1 (single isomer, unassigned) [Compound 29] | 49 | 99 | 0 | 0 | 0
12 | OC(Cn1cncn1)(C1=NOC(c2ccc(Oc3ccccc3)cc2)C1)c1ccc(Cl)cc1 (single isomer, unassigned) [Compound 142] | 86 | 99 | 0 | 100 | 91
13 | CC(C)(C)C(O)(Cn1cncn1)C1=NOC(COc2ccc3c(c2)OCO3)C1 (single isomer, unassigned) [Compound 46] | 76 | 73 | 19 | 85 | 0
14 | OC(Cn1cncn1)(C1=NOC(COc2ccc(F)cc2)C1)c1ccc(Cl)cc1 (single isomer, unassigned) [Compound 162] | 96 | 100 | 0 | 100 | 76
15 | OC(Cn1cncn1)(C1=NOC(c2cnccn2)C1)c1ccc(Cl)cc1 (single isomer, unassigned) [Compound 157] | 0 | 26 | 0 | 0 | 0
16 | CC(C)(C)C(O)(Cn1cncn1)C1=NOC(COc2ccc(Cl)cc2)C1 (stereo not drawn) [Compound 175, α-[5-[(4-chlorophenoxy)methyl]-4,5-dihydro-3-isoxazolyl]-α-(1,1-dimethylethyl)-1H-1,2,4-triazole-1-ethanol] | 100 | 100 | 0 | 100 | 1
17 | OC(Cn1cncn1)(C1=NOC(Cn2ccc(C(F)(F)F)n2)C1)c1ccc(Cl)cc1 (single isomer, unassigned) [Compound 194] | 11 | 99 | 0 | 100 | 0
18 | OC(Cn1cncn1)(C1=NOC(Cc2ccc(C(F)(F)F)cc2)C1)c1ccc(Cl)cc1 (single isomer, unassigned) [Compound 203] | 55 | 99 | 0 | 100 | 16
19 | CC(C)(C)C(O)(Cn1cncn1)C1=NOC(COCc2ccccc2)C1 (single isomer, unassigned) [Compound 59] | 92 | 89 | 0 | 80 | 2
20 | CC(C)(C)C(O)(Cn1cncn1)C1=NOC(COc2ccc(Br)cc2)C1 (single isomer, unassigned) [Compound 183] | 99 | 100 | 24 | 100 | 35
21 | OC(Cn1cncn1)(C1=NOC(COc2ccc3c(c2)OCO3)C1)c1ccc(Cl)cc1 (single isomer, unassigned) [Compound 43] | 38 | 98 | 31 | 100 | 0
22 | OC(Cn1cncn1)(C1=NOC(Cc2ccc(Cl)cc2)C1)c1ccc(Cl)cc1 (single isomer, unassigned) [Compound 201] | 50 | 96 | 0 | 100 | 1
23 | CC(C)(C)C(O)(Cn1cncn1)C1=NOC(COc2ccc(-n3cccn3)cc2)C1 (single isomer, unassigned) [Compound 28] | 39 | 99 | 24 | 0 | 0
24 | CCC(C)(C)C(O)(Cn1cncn1)C1=NOC(COc2ccc(Br)cc2)C1 (single isomer, unassigned) [Compound 11] | 100 | 99 | 81 | 100 | 88
25 | OC(Cn1cncn1)(C1=NOC(c2ccc(-n3cc(Br)cn3)cc2)C1)c1ccc(Cl)cc1 (single isomer, unassigned) [Compound 6] | 0 | 91 | 0 | 0 | 0
26 | CC(C)(C)C(O)(Cn1cncn1)C1=NOC(COc2ccc(F)cc2)C1 (single isomer, unassigned) [Compound 79] | 100 | 99 | 97 | 100 | 21
27 | OC(Cn1cncn1)(C1=NOC(COc2ccc(Cl)nc2)C1)c1ccc(Cl)cc1 (single isomer, unassigned) [Compound 102] | 0 | 69 | 0 | 18 | 0
28 | CC(C)(C)C(O)(Cn1cncn1)C1=NOC(COc2ccc(F)cc2)C1 (single isomer, unassigned) [Compound 80] | 100 | 99 | 82 | 100 | 1
